# US12414915B2, “Liquid naloxone spray” (HIKMA PHARMACEUTICALS USA INC., priority 2023, dated 2025)
# Like-named read-outs stand apart in the source and are kept apart here.
# Assay: Phase I five-way crossover: intranasal and sublingual naloxone spray 8 mg and 16 mg versus 0.4 mg intramuscular, plasma concentrations
# Type: in vivo, human subjects
# Conditions: for concentration at 0.03 h / concentration at 0.07 h / concentration at 0.1 h / concentration at 0.13 h / concentration at 0.17 h / concentration at 0.5 h / concentration at 1 h / concentration at […] / Cmax / AUC: human, plasma; for concentration at 0.03 h / concentration at 0.07 h / concentration at 0.1 h / concentration at 0.13 h / concentration at 0.17 h / concentration at 0.5 h / concentration at 1 h / concentration at […]: mean ± SD; for concentration at […]: read-out: Conc. @ 0.25 h; for AUC: time-zero to 1 hour post dose
# Experimental: 145 subjects were randomly assigned to one of five groups including 8 milligrams sublingual dose, 16 milligrams sublingual dose, 8 milligrams intranasal dose, 16 milligrams intranasal dose and 0.4 milligram naloxone dose. Plasma concentrations were taken at pre-dose, 0.03, 0.07, 0.1, 0.13, 0.17, 0.25, 0.5, 1, 2 4, 8 and 12 hours' post-dose.
smiles,measurement,setting,value
"C=CCN1CC[C@]23c4c5ccc(O)c4O[C@H]2C(=O)CC[C@@]3(O)[C@H]1C5 [naloxone, Naloxone]","mean plasma concentration, 16 mg intranasal compared with 16 mg sublingual",2 and 4 hours post-dose,significantly lower
same,"plasma concentration, intranasal compared with sublingual administration",all time points up to 1 hour after administration,significantly greater plasma concentration
same,concentration at 0.03 h,"intramuscular, 0.4 mg IM",0.15 ± 0.29 ng/mL
same,concentration at 0.07 h,"intramuscular, 0.4 mg IM",0.36 ± 0.38 ng/mL
same,concentration at 0.1 h,"intramuscular, 0.4 mg IM",0.51 ± 0.41 ng/mL
same,concentration at 0.13 h,"intramuscular, 0.4 mg IM",0.58 ± 0.39 ng/mL
same,concentration at 0.17 h,"intramuscular, 0.4 mg IM",0.63 ± 0.36 ng/mL
same,concentration at 0.5 h,"intramuscular, 0.4 mg IM",0.62 ± 0.22 ng/mL
same,concentration at 1 h,"intramuscular, 0.4 mg IM",0.51 ± 0.16 ng/mL
same,concentration at […],"intramuscular, 0.4 mg IM",0.69 ± 0.4 ng/mL
same,concentration at 0.03 h,"other: intranasal, 8 mg IN",6.19 ± 14.5 ng/mL
same,concentration at 0.07 h,"other: intranasal, 8 mg IN",13.9 ± 19.1 ng/mL
same,concentration at 0.1 h,"other: intranasal, 8 mg IN",18.8 ± 15.6 ng/mL
same,concentration at 0.13 h,"other: intranasal, 8 mg IN",20.5 ± 13.1 ng/mL
same,concentration at 0.17 h,"other: intranasal, 8 mg IN",20 ± 10.7 ng/mL
same,concentration at 0.5 h,"other: intranasal, 8 mg IN",9.88 ± 4.42 ng/mL
same,concentration at 1 h,"other: intranasal, 8 mg IN",6.29 ± 2.7 ng/mL
same,concentration at […],"other: intranasal, 8 mg IN",16.5 ± 6.71 ng/mL
same,concentration at 0.03 h,"other: intranasal, 16 mg IN",9.29 ± 14.3 ng/mL
same,concentration at 0.07 h,"other: intranasal, 16 mg IN",29.7 ± 28 ng/mL
same,concentration at 0.1 h,"other: intranasal, 16 mg IN",46.3 ± 36.6 ng/mL
same,concentration at 0.13 h,"other: intranasal, 16 mg IN",49.3 ± 34 ng/mL
same,concentration at 0.17 h,"other: intranasal, 16 mg IN",45.8 ± 24.6 ng/mL
same,concentration at 0.5 h,"other: intranasal, 16 mg IN",22.4 ± 8.19 ng/mL
same,concentration at 1 h,"other: intranasal, 16 mg IN",14.1 ± 5.61 ng/mL
same,concentration at […],"other: intranasal, 16 mg IN",35 ± 13.2 ng/mL
same,concentration at 0.03 h,"other: sublingual, 8 mg SL",0.18 ± 0.29 ng/mL
same,concentration at 0.07 h,"other: sublingual, 8 mg SL",0.62 ± 0.96 ng/mL
same,concentration at 0.1 h,"other: sublingual, 8 mg SL",0.88 ± 0.94 ng/mL
same,concentration at 0.13 h,"other: sublingual, 8 mg SL",1.17 ± 1.13 ng/mL
same,concentration at 0.17 h,"other: sublingual, 8 mg SL",1.54 ± 1.1 ng/mL
same,concentration at 0.5 h,"other: sublingual, 8 mg SL",2.03 ± 1.28 ng/mL
same,concentration at 1 h,"other: sublingual, 8 mg SL",1.61 ± 0.85 ng/mL
same,concentration at […],"other: sublingual, 8 mg SL",1.98 ± 1.29 ng/mL
same,concentration at 0.03 h,"other: sublingual, 16 mg SL",0.52 ± 0.8 ng/mL
same,concentration at 0.07 h,"other: sublingual, 16 mg SL",1.69 ± 1.85 ng/mL
same,concentration at 0.1 h,"other: sublingual, 16 mg SL",2.31 ± 2.08 ng/mL
same,concentration at 0.13 h,"other: sublingual, 16 mg SL",3.16 ± 3.39 ng/mL
same,concentration at 0.17 h,"other: sublingual, 16 mg SL",3.63 ± 3.83 ng/mL
same,concentration at 0.5 h,"other: sublingual, 16 mg SL",3.94 ± 2.96 ng/mL
same,concentration at 1 h,"other: sublingual, 16 mg SL",2.96 ± 1.66 ng/mL
same,concentration at […],"other: sublingual, 16 mg SL",4.39 ± 4.24 ng/mL
same,Cmax,"other: intranasal, 8 mg IN",20.5 ng/mL
same,AUC,"other: intranasal, 8 mg IN",11.2 ng·h/mL
same,Cmax,"other: intranasal, 16 mg IN",49.3 ng/mL
same,AUC,"other: intranasal, 16 mg IN",24.9 ng·h/mL
same,Cmax,"other: sublingual, 8 mg SL",2.03 ng/mL
same,AUC,"other: sublingual, 8 mg SL",1.68 ng·h/mL
same,Cmax,"other: sublingual, 16 mg SL",4.39 ng/mL
same,AUC,"other: sublingual, 16 mg SL",3.42 ng·h/mL
same,Cmax,0.4 mg IM,0.69 ng/mL
same,AUC,0.4 mg IM,0.57 ng·h/mL
same,plasma concentration compared with 0.4 mg intramuscular administration,"intranasal or sublingual, 8 mg or 16 mg, all time points up to 1 hour, fasted",significantly greater plasma concentrations
